Results reported in patent US6569881B1, “Substituted benzimidazole, the production thereof and the use thereof as means against parasitic protozoa” (Bayer Aktiengesellschaft, priority 1999, dated 2003).
“And” between values parts separate entries of the source, which are not always exact repeats. Identical values can stand only once.

What was measured:
Format in all cases: in vivo, chicken chicks
[1] = test system: Eimeria maxima; test: Cage experiments coccidiosis/chicks, Eimeria maxima part of the mixed infection
Procedure, shortened: (§1)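 Male chicks 8–12 days old, three per cage, given compound in feed (ppm) from day -3 to 8 (9) days post-infection; infected by crop tube with ~100,000 E. acervulina, ~30,000 E. maxima and 40,000 E. tenella sporulated oocysts. Scored by weight gain, mortality, dropping and lesion scores (0–6), McMaster oocyst counts and sporulation.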

[2] = test system: Eimeria acervulina, Eimeria maxima and Eimeria tenella; test: Cage experiments coccidiosis/chicks, mixed experimental infection
Procedure, shortened: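 Male chicks aged 8–12 days, raised coccidia-free, were fed compound in feed (ppm) from day −3 to day 8 (9) p.i. and infected via crop tube with about 100,000 E. acervulina, 30,000 E. maxima and 40,000 E. tenella oocysts. Weight gain, mortality, dropping and lesion scores and oocyst counts were combined into an overall % efficacy.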

[3] = test system: Eimeria tenella; test: Cage experiments coccidiosis/chicks, Eimeria tenella part of the mixed infection
Procedure, shortened: as §1

[4] = test system: Eimeria acervulina; test: Cage experiments coccidiosis/chicks, Eimeria acervulina part of the mixed infection
Procedure, shortened: as §1

CO[C@@H]1[C@@H](OC)[C@H](C)[C@@](O)(CC(=O)O)O[C@H]1[C@H](C)[C@H]1O[C@@]2(CC[C@@](C)([C@H]3CC[C@@](C)([C@@H]4O[C@@H]([C@H]5O[C@](C)(O)[C@H](C)C[C@@H]5C)C[C@@H]4O[C@@H]4C[C@H](OC)[C@@H](OC)[C@H](C)O4)O3)O2)C[C@H](O)[C@H]1C [MAD, Maduramicin, reference compound]
oocyst in % of inf. control max. ([1]; 3 ppm in feed): 0% | oocyst in % of inf. control max. ([1]; MAD 1 ppm): 86 % of inf. control | oocyst in % of inf. control max. ([1]; MAD 2 ppm): >100 % of inf. control | oocyst in % of inf. control max. ([1]; MAD 3 ppm): 14 % of inf. control | % efficacy tot. ([2]; 1 ppm in feed): 38% | mortality % ([2]; 1 ppm in feed): 0% | mortality n (died/employed) ([2]; 1 ppm in feed): 0/3 | weight % of not inf. control ([2]; 1 ppm in feed): 77% and 56% | lesion score ([2]; 1 ppm in feed, grade 0 to 6): 5 and 6 | % efficacy tot. ([2]; 2 ppm in feed): 55% and 32% | mortality % ([2]; 2 ppm in feed): 0% | mortality n (died/employed) ([2]; 2 ppm in feed): 0/3 | weight % of not inf. control ([2]; 2 ppm in feed): 74% and 60% | lesion score ([2]; 2 ppm in feed, grade 0 to 6): 3 and 6 | % efficacy tot. ([2]; 3 ppm in feed): 61% and 93% | mortality n (died/employed) ([2]; 3 ppm in feed): 0/3 and 1/3 | weight % of not inf. control ([2]; 3 ppm in feed): 76% and 92% | dropping scores ([2]; 3 ppm in feed, grade 0 to 6): 0 | lesion score ([2]; 3 ppm in feed, grade 0 to 6): 1 | % efficay tot. ([2]; MAD 1 ppm): 7% | dropping scores ([2]; MAD 1 ppm): 6 | lesion score ([2]; MAD 1 ppm): 6 | mortality % ([2]; MAD 1 ppm): 0% | mortality n ([2]; MAD 1 ppm): 0/3 | oocyst in % of inf. control tot. ([2]; MAD 1 ppm): 29 % of inf. control | weight % of not inf. control ([2]; MAD 1 ppm): 59 % of not inf. control | % efficay tot. ([2]; MAD 2 ppm): 17% | dropping scores ([2]; MAD 2 ppm): 6 | lesion score ([2]; MAD 2 ppm): 5 | mortality % ([2]; MAD 2 ppm): 0% | mortality n ([2]; MAD 2 ppm): 0/3 | oocyst in % of inf. control tot. ([2]; MAD 2 ppm): 48 % of inf. control | weight % of not inf. control ([2]; MAD 2 ppm): 63 % of not inf. control | % efficay tot. ([2]; MAD 3 ppm): 60% | dropping scores ([2]; MAD 3 ppm): 6 | lesion score ([2]; MAD 3 ppm): 2.7 | mortality % ([2]; MAD 3 ppm): 33% | mortality n ([2]; MAD 3 ppm): 0/3 | oocyst in % of inf. control tot. ([2]; MAD 3 ppm): 9 % of inf. control | weight % of not inf. control ([2]; MAD 3 ppm): 90 % of not inf. control | oocyst in % of inf. control ten. ([3]; MAD 1 ppm): 56 % of inf. control | oocyst in % of inf. control ten. ([3]; MAD 2 ppm): 82 % of inf. control | oocyst in % of inf. control ten. ([3]; MAD 3 ppm): 6 % of inf. control | oocyst in % of inf. control ac. ([4]; 1 ppm in feed): 60% and >100% | oocyst in % of inf. control ac. ([4]; MAD 1 ppm): 39 % of inf. control | oocyst in % of inf. control ac. ([4]; MAD 2 ppm): 27 % of inf. control | oocyst in % of inf. control ac. ([4]; MAD 3 ppm): 11 % of inf. control
